Test results from US20260169011A1, “METHODS AND COMPOSITIONS FOR PROVIDING CUSTOMIZED NUTRITIONAL SUPPLEMENTS” (Vibrant Holdings LLC, priority 2023, published 2026).
Like-named read-outs stand apart in the source and are kept apart here.

Columns and labels:
[1] = NutriPro test: serum, RBC and WBC nutrient values before and after ATB / customized blend; type: in vivo, human; details: for Actual Nutrient Value (ANV): before customized blend; for concentration at 3 months: read-out: Follow-up Nutrient Level; for Pre-test biomarker level: before ATB
From the text: The method for providing a nutritional supplement for a subject as disclosed herein is based on a comprehensive panel that assesses intracellular and extracellular levels of at least or up to 41 nutrients. […] Blood analysis using the method disclosed herein tests for nutrient levels in serum, red blood cells (RBCs), and white blood cells (WBCs). Additional genetic testing can assess patients' predispositions toward nutrient deficiencies. Based on the blood and genetic analysis results, a subsequent supplementation diet comprising supplements and food sources can be designed and implemented. The subject can be a human subject.
In some embodiments, the detection method is mass spectrometry.
The ‘NutriPro’ test is used to assess serum (extracellular), RBC, and WBC (intracellular) nutrient values along with genetic testing for any predispositions with could be affecting nutrient values in the body. If required, additional tests such as the gut zoomer, cardiovascular health, thyroid test, kidney function test, liver function test, etc, are carried out. FIG. 1 provides a schematic diagram of the process of the NutriPro test from the individual subject to the creation of customized nutritional blends.
The ATB is given to the individual for nutritional supplementation, and blood testing for nutrients in serum, RBC, and WBC is carried out after 3 or 6 months.
The assessed change is called the VAF.
After testing, the individual takes the ATB or the customized blend for the amount of time indicated.

[2] = Vibrant Absorption Factor (VAF): difference of post- and pre-supplementation nutrient values divided by ATB dosage
From the text: Improvement in nutrition can be determined by comparing the nutrient values in serum, RBC, and WBCs post-nutritional supplementation to the nutrient values in serum, RBC, and WBCs pre-nutritional supplementation. Based on the improvement, the change in the nutrient levels can be attributed to the per milligram dosage of the supplemented nutrients. The assessed nutritional change is the “Vibrant Absorption factor (VAF (see Equation (1) below). The VAF can be used to determine the subject's utilization of the supplemented nutrients, as determined by the difference in extracellular and intracellular nutrient values before and after supplementation. Based on the subject's utility or absorption of the nutrients, the dosage amount of the nutrient needed to be supplemented or increased to effect change of the subject's nutrient values into the optimum nutrient zone can be assessed. In various embodiments, the VAF is determined by administering a pre-determined formulation, referred to herein as the Absorption Testing Blend.
Next, the ATB is administered to the individual for a predefined period at step 320a, after which nutrient levels and the genetic nutrient profile are re-evaluated, to obtain the post-supplementation biomarker values at step 330.
This includes determining the VAF based on the difference between post- and pre-supplementation biomarker values, which is divided by the ATB dosage.
The assessed change is called the VAF. The VAF is used to understand how the individual's body is utilizing these nutrients, depending on the difference in extracellular and intracellular nutrient values before and after supplementation. Based on the body's utility or absorption of the nutrients, the amount of nutrients needed to be supplemented to alter the individual's nutrient values into the optimum nutrient zone is understood. The VAF calculations help in determining the appropriate dosages of nutrients required in the ‘customized blend.’

[3] = cited from earlier work
[4] = human, in vivo, Level: Questionnaire, person, after customized blend
[5] = person one, level: Questionnaire
[6] = person one, serum, after customized blend
[7] = person three, serum, after customized blend
[8] = person two, serum, after customized blend

## N=C(N)NCCC[C@H](N)C(=O)O [Arginine]
[1]; Level: Questionnaire, person
  Actual Nutrient Value (ANV): 84 nmol/mL
[1]; [4]
  concentration at 3 months: 89.5 µM
[1]; male, human, in vivo
  Follow-up Biomarker level: 234 nmol/mL
  Post-test biomarker level: 162 nmol/mL
[1]; [5]
  Pre-test biomarker level: 135 nmol/mL
[2]; [5]
  VAF: 2.7

## [44Ca] [Calcium, Ca 44]
[3]; upper tolerable limit
  UTL: 2,500 mg/day

## C[N+](C)(C)CC(O)CC(=O)[O-] (centres unmarked) [Carnitine]
[3]; Table 18, person one
  UTL: 2000 mg/day
[3]; Table 20, person three
  UTL: 2000 mg/day
[1]; person one, serum, after ATB
  Post-test biomarker level: 14.9 nmol/mL
[1]; [6]
  Follow-up Biomarker level: 42.5 nmol/mL
[1]; person one, serum
  Pre-test biomarker level: 9.5 nmol/mL
[1]; person three, level: Questionnaire, after customized blend
  Follow-up Nutrient Level: 43.2 nmol/mL
[1]; person three, level: Questionnaire
  Actual Nutrient Value (ANV): 24 nmol/mL
[2]; person one, serum
  VAF: 1.08

## C[N+](C)(C)CCO [Choline]
[3]; upper tolerable limit
  UTL: 3,500 mg/day

## [Cr] [Chromium]
[1]; [7]
  Follow-up Nutrient Level: 0.277 ng/mL
[1]; person three, serum
  Actual Nutrient Value (ANV): 0.133 ng/mL

## NC(=O)NCCC[C@H](N)C(=O)O [Citrulline]
[1]; Level: Questionnaire, person
  Actual Nutrient Value (ANV): 19.2 nmol/mL
[1]; [4]
  concentration at 3 months: 24.9 µM
[1]; person two, serum, after ATB
  Post-test biomarker level: 16.7 nmol/mL
[1]; [8]
  Follow-up Biomarker level: 43.4 nmol/mL
[1]; person two, serum
  Pre-test biomarker level: 9.1 nmol/mL
[2]; person two, serum
  VAF: 0.76

## COC1=C(OC)C(=O)C(C/C=C(\C)CC/C=C(\C)CC/C=C(\C)CC/C=C(\C)CC/C=C(\C)CC/C=C(\C)CC/C=C(\C)CC/C=C(\C)CC/C=C(\C)CCC=C(C)C)=C(C)C1=O [Coenzyme 10]
[3]; Table 18, person one
  UTL: 1,200 mg/day
[3]; Table 19, person two
  UTL: 1,200 mg/day
[1]; person one, serum, after ATB
  Post-test biomarker level: 320 ng/mL
[1]; [6]
  Follow-up Biomarker level: 1800 ng/mL
[1]; person one, serum
  Pre-test biomarker level: 200 ng/mL
[1]; person two, serum, after ATB
  Post-test biomarker level: 1200 ng/mL
[1]; [8]
  Follow-up Biomarker level: 1880 ng/mL
[1]; person two, serum
  Pre-test biomarker level: 100 ng/mL
[2]; person one, serum
  VAF: 0.024
[2]; person two, serum
  VAF: 0.22

## COC1=C(OC)C(=O)C(C/C=C(\C)CC/C=C(\C)CC/C=C(\C)CC/C=C(\C)CC/C=C(\C)CC/C=C(\C)CC/C=C(\C)CC/C=C(\C)CC/C=C(\C)CCC=C(C)C)=C(C)C1=O [Coenzyme Q10]
[3]; Table 20, person three
  UTL: 1,200 mg/day
[1]; [7]
  Follow-up Nutrient Level: 1990 ng/mL
[1]; person three, serum
  Actual Nutrient Value (ANV): 100 ng/mL

## [Cu] [Copper, Cu 63]
[3]; upper tolerable limit
  UTL: 10 mg/day

## CC/C=C\C/C=C\C/C=C\C/C=C\C/C=C\CCCCCC(=O)O [DPA, docosapentaenoic acid]
[1]; person three, cells, after customized blend, unit not given
  Follow-up Nutrient Level: 1.2
[1]; person three, cells, unit not given
  Actual Nutrient Value (ANV): 0.46

## C[N+](C)(C)C[C@H](O)CC(=O)[O-] [Free Carnitine]
[3]; upper tolerable limit
  UTL: 2000 mg/day

## [Fe] [Iron, Fe 56]
[3]; upper tolerable limit
  UTL: 45 mg/day

## CC[C@H](C)[C@H](N)C(=O)O [Isoleucine]
[1]; [7]
  Follow-up Nutrient Level: 144 nmol/mL
[1]; person three, serum
  Actual Nutrient Value (ANV): 26.2 nmol/mL
[1]; person two, serum, after ATB
  Post-test biomarker level: 44 nmol/mL
[1]; [8]
  Follow-up Biomarker level: 149 nmol/mL
[1]; person two, serum
  Pre-test biomarker level: 14.2 nmol/mL
[2]; person two, serum
  VAF: 8.514

## N=C(N)NCCC[C@H](N)C(=O)O [L-Arginine]
[1]; female, human, in vivo
  Post-test biomarker level: 67 nmol/mL
[1]; [8]
  Follow-up Biomarker level: 232 nmol/mL
[1]; person two, serum
  Pre-test biomarker level: 58 nmol/mL
[2]; person two, serum
  VAF: 0.9

## CC(C)C[C@H](N)C(=O)O [L-Leucine]
[1]; person one, serum, after ATB
  Post-test biomarker level: 101 nmol/m
[1]; [6]
  Follow-up Biomarker level: 222 nmol/m
[1]; person one, serum
  Pre-test biomarker level: 82 nmol/m
[2]; person one, serum
  VAF: 5.429

## CC(C)[C@H](N)C(=O)O [L-Valine]
[1]; person one, serum, after ATB
  Post-test biomarker level: 4.7e+10 nmol/mL
[1]; [6]
  Follow-up Biomarker level: 322 nmol/mL
[1]; person one, serum
  Pre-test biomarker level: 12 nmol/mL
[2]; person one, serum
  VAF: 8.75

## CC(C)C[C@H](N)C(=O)O [Leucine]
[1]; [7]
  Follow-up Nutrient Level: 225 nmol/m
[1]; person three, serum
  Actual Nutrient Value (ANV): 85 nmol/m

## [24Mg] [Magnesium, Mg 24]
[3]; upper tolerable limit
  UTL: 350 mg/day

## [Mg] [Magnesium]
[3]; Table 18, person one
  UTL: 350 mg/day
[1]; person one, serum, after ATB
  Post-test biomarker level: 17000 ng/mL
[1]; [6]
  Follow-up Biomarker level: 25200 ng/mL
[1]; person one, serum
  Pre-test biomarker level: 5000 ng/mL
[2]; person one, serum
  VAF: 0.012

## [Mn] [Manganese, Mn 55]
[3]; upper tolerable limit
  UTL: 11 mg/day

## [Mn+2] [Manganese]
[3]; Table 19, person two
  UTL: 11 mg/day
[1]; person two, cells, after ATB
  Post-test biomarker level: 7.8 pg/MM WBC
[1]; person two, cells, after customized blend
  Follow-up Biomarker level: 67.5 pg/MM WBC
[1]; person two, cells
  Pre-test biomarker level: 0.5 pg/MM WBC
[1]; person two, serum, after ATB
  Post-test biomarker level: 0.62 ng/mL
[1]; [8]
  Follow-up Biomarker level: 2.1 ng/mL
[1]; person two, serum
  Pre-test biomarker level: 0.4 ng/mL
[2]; person two, cells
  VAF: 7.684
[2]; person two, serum
  VAF: 0.2316

## O[C@H]1[C@H](O)[C@@H](O)[C@H](O)[C@@H](O)[C@H]1O [Myo-Inositol]
[1]; female, human, in vivo
  Post-test biomarker level: 12.9 nmol/mL
[1]; [8]
  Follow-up Biomarker level: 47.5 nmol/mL
[1]; person two, serum
  Pre-test biomarker level: 7.4 nmol/mL
[2]; person two, serum
  VAF: 0.55

## [76Se] [Selenium, Se 76]
[3]; upper tolerable limit
  UTL: 0.4 mg/day

## N[C@@H](CO)C(=O)O [Serine]
[3]; Table 20, person three
  UTL: 12000 mg/day
[1]; [7]
  Follow-up Nutrient Level: 131 nmol/mL
[1]; person three, serum
  Actual Nutrient Value (ANV): 62 nmol/mL

## [Na] [Sodium]
[3]; upper tolerable limit
  UTL: 2,300 mg/day

## CC(C)[C@H](N)C(=O)O [Valine]
[1]; [7]
  Follow-up Nutrient Level: 332 nmol/mL
[1]; person three, serum
  Actual Nutrient Value (ANV): 26 nmol/mL

## CC1=C(/C=C/C(C)=C/C=C/C(C)=C/CO)C(C)(C)CCC1 [Vitamin A (Retinol)]
[3]; upper tolerable limit
  UTL: 10,000 IU/day

## Cc1cc2nc3c(=O)[nH]c(=O)nc-3n(C[C@H](O)[C@H](O)[C@H](O)CO)c2cc1C [Vitamin B2]
[1]; [7]
  Follow-up Nutrient Level: 231 ng/mL
[1]; person three, serum
  Actual Nutrient Value (ANV): 5.5 ng/mL

## O=C(O)c1cccnc1 [Vitamin B3]
[3]; Table 18, person one
  UTL: 35 mg/day
[1]; person one, serum, after ATB
  Post-test biomarker level: 3.9 ng/mL
[1]; [6]
  Follow-up Biomarker level: 70.1 ng/mL
[1]; person one, serum
  Pre-test biomarker level: 1.1 ng/mL
[2]; person one, serum
  VAF: 0.7

## O=C1O[C@H]([C@@H](O)CO)C(O)=C1O [Vitamin C (L-Ascorbic acid)]
[3]; upper tolerable limit
  UTL: 2000 mg/day

## Cc1c(C)c2c(c(C)c1O)CC[C@@](C)(CCC[C@H](C)CCC[C@H](C)CCCC(C)C)O2 [Vitamin E (alpha-tocopherol)]
[3]; upper tolerable limit
  UTL: 1,100 IU/day

## CC1=C(C/C=C(\C)CCC[C@H](C)CCC[C@H](C)CCCC(C)C)C(=O)c2ccccc2C1=O [Vitamin K1]
[1]; [7]
  Follow-up Nutrient Level: 12.3 ng/mL
[1]; person three, serum
  Actual Nutrient Value (ANV): 0.07 ng/mL
[1]; person two, serum, after ATB
  Post-test biomarker level: 1.7 ng/mL
[1]; [8]
  Follow-up Biomarker level: 12.4 ng/mL
[1]; person two, serum
  Pre-test biomarker level: 0.08 ng/mL
[2]; person two, serum
  VAF: 0.081

## [Zn] [Zinc, Zn 67]
[3]; upper tolerable limit
  UTL: 40 mg/day

## Vitamin B12
[1]; person one, cells, after ATB, unit not given
  Post-test biomarker level: 1.7
[1]; person one, cells, after customized blend, unit not given
  Follow-up Biomarker level: 10.3
[1]; person one, cells, unit not given
  Pre-test biomarker level: 0.2
[1]; person one, serum, after ATB
  Post-test biomarker level: 0.205 ng/mL
[1]; [6]
  Follow-up Biomarker level: 1.17 ng/mL
[1]; person one, serum
  Pre-test biomarker level: 0.105 ng/mL
[1]; person two, serum, after ATB
  Post-test biomarker level: 0.147 ng/mL
[1]; [8]
  Follow-up Biomarker level: 1.122 ng/mL
[1]; person two, serum
  Pre-test biomarker level: 0.094 ng/mL
[2]; person one, cells
  VAF: 3.75
[2]; person one, serum
  VAF: 250
[2]; person two, serum
  VAF: 132.5

## Vitamin K2
[1]; person one, serum, after ATB
  Post-test biomarker level: 0.017 ng/mL
[1]; [6]
  Follow-up Biomarker level: 0.1017 ng/mL
[1]; person one, serum
  Pre-test biomarker level: 0.01 ng/mL
[2]; person one, serum
  VAF: 0.0007
